Experimental data published in patent US8628938B2, “Polynucleotide encoding UDP-glucuronyl transferase” (Suntory Holdings Limited, priority 2007, dated 2014).

Each compound was assayed on PfUGT50 (assay: UDP-glucuronosyltransferase activity assay (HPLC) with recombinant PfUGT50). Details: 100 μM glycosyl acceptor substrate, 2 mM UDP-glucuronic acid, pH 7.5, 30° C., 30 minutes.
Assay type: biochemical, Perilla frutescens
Protocol: (§1) Escherichia coli BL21 (DE3) was transformed with each plasmid obtained in 4-(1) above. The transformant obtained was shake cultured overnight at 37° C. in 4 ml of LB medium (10 g/l tryptone, 5 g/l yeast extract, 1 g/l NaCl) supplemented with 50 μg/ml of ampicillin. The culture broth, 4 ml, which reached the stationary phase, was inoculated into 80 ml of the medium with the same composition, followed by shake culture at 37° C. When the cell turbidity (OD600) reached approximately 0.5, 0.4 mM IPTG (isopropyl-β-thiogalactopyranoside) in a final concentration was added to the medium, followed by shake culture at 22° C. for 20 hours. All of the subsequent procedures were performed at 4° C. The transformants cultured were centrifuged (7,000×g, 15 mins.) to collect the cells, and 2 ml/g cell of Buffer S (20 mM sodium phosphate buffer (pH 7.4), 20 mM imidazole, 0.5 M NaCl, 14 mM β-mercaptoethanol) was added to the cells for suspension. Subsequently, ultrasonication was performed (15 secs.×8) followed by centrifugation (15,000×g, 10 mins.). To the supernatant obtained, 0.12% (w/v) polyethyleneimine in a final concentration was added to […], which was then allowed to stand for 30 minutes. The mixture was centrifuged (15,000×g, 10 mins.) and the supernatant was recovered as a crude enzyme solution. The crude enzyme solution was applied to His SpinTrap (GE Healthcare), which had been equilibrated with Buffer S, and centrifuged (70×g, 30 secs.). After washing with 600 μl of Buffer S, the protein bound to the column was stepwise eluted with 600 μl each of Buffer S containing 100, 200 and 500 mM imidazole. The buffer in each fraction eluted was replaced by 20 mM potassium phosphate buffer (pH 7.5) containing 14 mM β-mercaptoethanol, using Microcon YM-30 (Amicon). […] These fractions were mixed and used for analysis.
(§2) Standard reaction conditions are as follows. A reaction solution (2 mM UDP-glucuronic acid, 100 μM glycosyl acceptor substrate, 50 mM potassium phosphate buffer (pH 7.5), enzyme solution), 50 μl, was prepared and the enzyme solution was added to initiate the reaction at 30° C. for 30 minutes. The reaction was stopped by adding 50 μl of 0.5% TFA in CH3CN and provided for HPLC analysis. The conditions for HPLC are as follows: column, Develosil C30-UG-5 (4.6×150 mm); eluant A, 0.1% TFA/H2O; eluant B, 0.08% TFA/90% CH3CN; conditions A for elution (except for aurone, catechin, coumarine and phenylpropanoid), 0 min/5% B→18 min/100% eluant B'18.1 min/5% B→25 min/5% B; conditions B for elution (aurone, catechin, coumarine and phenylpropanoid), 0 min/5% B→20 min/50% eluant B→20.5 min/5% B→25 min/5% B; flow rate, 1 ml/min; detection wavelength: 280 and 350 nm.

Row | Compound | relative activity to each substrate, taking the activity to scutellarein as 100% [%]
1 | COc1cc(-c2cc(=O)c3c(O)cc(O)cc3o2)ccc1O [chrysoeriol] | 18
2 | O=C1/C(=C/c2ccc(O)c(O)c2)Oc2cc(O)cc(O)c21 [aureusidin] | 40
3 | O=c1c(O)c(-c2cc(O)c(O)c(O)c2)oc2cc(O)cc(O)c12 [myricetin] | 9
4 | COc1ccc(-c2cc(=O)c3c(O)cc(O)cc3o2)cc1O [diosmetin] | 62
5 | O=C1C[C@@H](c2ccc(O)cc2)Oc2cc(O)cc(O)c21 [naringenin] | 3
6 | O=c1cc(-c2cc(O)c(O)c(O)c2)oc2cc(O)cc(O)c12 [tricetin] | 87.9
7 | O=c1c(O)c(-c2ccc(O)cc2)oc2cc(O)cc(O)c12 [kaempferol] | 3

Same assay, conditions: apigenin as glycosyl acceptor substrate

Row | Compound | activity to UDP-activated glycosyl donor
8 | O=C(O)[C@H]1O[C@H](OP(=O)(O)OP(=O)(O)OC[C@H]2O[C@@H](n3ccc(=O)[nH]c3=O)[C@H](O)[C@@H]2O)[C@H](O)[C@@H](O)[C@@H]1O [UDP-glucuronic acid] | showed the activity

Same assay, conditions: standard reaction conditions

Row | Compound | glucuronosyl transfer activity to glycosyl acceptor substrate (in words)
9 | COc1cc(/C=C/CO)ccc1O [coniferyl alcohol] | no activity
10 | O=C(O[C@@H]1Cc2c(O)cc(O)cc2O[C@@H]1c1cc(O)c(O)c(O)c1)c1cc(O)c(O)c(O)c1 [epigallocatechin gallate] | no activity
11 | Oc1ccc(C=Cc2cc(O)cc(O)c2)cc1 [resveratrol] | shows the activity
12 | O=c1ccc2cc(O)c(O)cc2o1 [esculetin] | no activity
13 | O=c1c(-c2ccc(O)cc2)coc2cc(O)ccc12 [daidzein] | no activity
14 | catechin | no activity
15 | Oc1ccc([C@H]2OC[C@H]3[C@@H]2CO[C@@H]3c2ccc3c(c2)OCO3)cc1O [SC1, (+)-sesamin catechol 1] | shows the activity
16 | O=c1c(-c2ccc(O)cc2)coc2cc(O)cc(O)c12 [genistein] | no activity
17 | O=c1cc(-c2ccc(O)cc2)oc2cc(O)c([C@@H]3O[C@H](CO)[C@@H](O)[C@H](O)[C@H]3O)c(O)c12 [isovitexin] | no activity
18 | O=c1cc(-c2ccc(O)c(O)c2)oc2c([C@@H]3O[C@H](CO)[C@@H](O)[C@H](O)[C@H]3O)c(O)cc(O)c12 [orientin] | no activity

These compounds were tested on SiUGT23 (assay: UDP-glucuronosyltransferase activity assay (HPLC) with recombinant SiUGT23). Details: 100 μM glycosyl acceptor substrate, 2 mM UDP-glucuronic acid, pH 7.5, 30° C., 30 minutes.
Assay type: biochemical, Sesamum indicum
Protocol: as §2
cDNA containing full-length ORF of SiUGT23 derived from Sesamum indicum was amplified by a gene-specific primer set (SEQ ID NOs: 24 and 25). cDNA synthesized using total RNA extracted from sesame seeds was used as a template. SiUGT23 was incorporated into Escherichia coli expression vector as in UGT of Perilla frutescens, Scutellaria laeteviolacea v. yakusimensis and Antirrhinum majus in EXAMPLE 1 and recombinant SiUGT23 protein was expressed in the same way to assay the enzyme activity.

Row | Compound | relative activity to each substrate, taking the activity to scutellarein as 100% [%]
19 | COc1cc(-c2cc(=O)c3c(O)cc(O)cc3o2)ccc1O [chrysoeriol] | 6
20 | O=c1ccc2cc(O)c(O)cc2o1 [esculetin] | 0.03
21 | O=C1/C(=C/c2ccc(O)c(O)c2)Oc2cc(O)cc(O)c21 [aureusidin] | 13
22 | COc1ccc(-c2cc(=O)c3c(O)cc(O)cc3o2)cc1O [diosmetin] | 4
23 | O=C1C[C@@H](c2ccc(O)cc2)Oc2cc(O)cc(O)c21 [naringenin] | 2
24 | O=c1cc(-c2ccc(O)cc2)oc2cc(O)c([C@@H]3O[C@H](CO)[C@@H](O)[C@H](O)[C@H]3O)c(O)c12 [isovitexin] | 0.3
25 | O=c1cc(-c2cc(O)c(O)c(O)c2)oc2cc(O)cc(O)c12 [tricetin] | 14.0
26 | O=c1c(O)c(-c2ccc(O)cc2)oc2cc(O)cc(O)c12 [kaempferol] | 18

Same assay, conditions: standard reaction conditions

Row | Compound | glucuronosyl transfer activity to glycosyl acceptor substrate (in words)
27 | O=C(O[C@@H]1Cc2c(O)cc(O)cc2O[C@@H]1c1cc(O)c(O)c(O)c1)c1cc(O)c(O)c(O)c1 [epigallocatechin gallate] | no activity
28 | Oc1ccc(C=Cc2cc(O)cc(O)c2)cc1 [resveratrol] | shows the activity
29 | O=c1c(-c2ccc(O)cc2)coc2cc(O)ccc12 [daidzein] | no activity
30 | catechin | no activity
31 | O=C(O)/C=C/c1ccc(O)c(O)c1 [caffeic acid] | no activity
32 | O=c1c(-c2ccc(O)cc2)coc2cc(O)cc(O)c12 [genistein] | no activity
33 | O=c1cc(-c2ccc(O)c(O)c2)oc2c([C@@H]3O[C@H](CO)[C@@H](O)[C@H](O)[C@H]3O)c(O)cc(O)c12 [orientin] | no activity

Each compound was assayed on AmUGTcg10 (assay: UDP-glucuronosyltransferase activity assay (HPLC) with recombinant AmUGTcg10). Details: 100 μM glycosyl acceptor substrate, 2 mM UDP-glucuronic acid, pH 7.5, 30° C., 30 minutes.
Assay type: biochemical, Antirrhinum majus
Protocol: as §1, §2

Row | Compound | relative activity to each substrate, taking the activity to scutellarein as 100% [%]
34 | COc1cc(-c2cc(=O)c3c(O)cc(O)cc3o2)ccc1O [chrysoeriol] | 18
35 | O=C1/C(=C/c2ccc(O)c(O)c2)Oc2cc(O)cc(O)c21 [aureusidin] | 2
36 | COc1ccc(-c2cc(=O)c3c(O)cc(O)cc3o2)cc1O [diosmetin] | 26
37 | O=C1C[C@@H](c2ccc(O)cc2)Oc2cc(O)cc(O)c21 [naringenin] | 15
38 | O=c1cc(-c2cc(O)c(O)c(O)c2)oc2cc(O)cc(O)c12 [tricetin] | 23.8
39 | O=c1c(O)c(-c2ccc(O)cc2)oc2cc(O)cc(O)c12 [kaempferol] | 28

Same assay, conditions: apigenin as glycosyl acceptor substrate

Row | Compound | activity to UDP-activated glycosyl donor
40 | O=C(O)[C@H]1O[C@H](OP(=O)(O)OP(=O)(O)OC[C@H]2O[C@@H](n3ccc(=O)[nH]c3=O)[C@H](O)[C@@H]2O)[C@H](O)[C@@H](O)[C@@H]1O [UDP-glucuronic acid] | showed the activity

Same assay, conditions: standard reaction conditions

Row | Compound | glucuronosyl transfer activity to glycosyl acceptor substrate (in words)
41 | COc1cc(/C=C/CO)ccc1O [coniferyl alcohol] | no activity
42 | O=C(O[C@@H]1Cc2c(O)cc(O)cc2O[C@@H]1c1cc(O)c(O)c(O)c1)c1cc(O)c(O)c(O)c1 [epigallocatechin gallate] | no activity
43 | Oc1ccc(C=Cc2cc(O)cc(O)c2)cc1 [resveratrol] | shows the activity
44 | O=c1ccc2cc(O)c(O)cc2o1 [esculetin] | no activity
45 | O=c1c(-c2ccc(O)cc2)coc2cc(O)ccc12 [daidzein] | no activity
46 | catechin | no activity
47 | O=c1c(-c2ccc(O)cc2)coc2cc(O)cc(O)c12 [genistein] | no activity
48 | O=c1cc(-c2ccc(O)cc2)oc2cc(O)c([C@@H]3O[C@H](CO)[C@@H](O)[C@H](O)[C@H]3O)c(O)c12 [isovitexin] | no activity
49 | O=c1cc(-c2ccc(O)c(O)c2)oc2c([C@@H]3O[C@H](CO)[C@@H](O)[C@H](O)[C@H]3O)c(O)cc(O)c12 [orientin] | no activity

Each compound was assayed on S1UGT (assay: UDP-glucuronosyltransferase activity assay (HPLC) with recombinant S1UGT). Details: 100 μM glycosyl acceptor substrate, 2 mM UDP-glucuronic acid, pH 7.5, 30° C., 30 minutes.
Assay type: biochemical, Scutellaria laeteviolacea v. yakusimensis
Protocol: as §1, §2

Row | Compound | relative activity to each substrate, taking the activity to scutellarein as 100% [%]
50 | COc1cc(-c2cc(=O)c3c(O)cc(O)cc3o2)ccc1O [chrysoeriol] | 0.02
51 | O=c1ccc2cc(O)c(O)cc2o1 [esculetin] | 0.3
52 | O=c1c(-c2ccc(O)cc2)coc2cc(O)ccc12 [daidzein] | 0.3
53 | O=c1c(-c2ccc(O)cc2)coc2cc(O)cc(O)c12 [genistein] | 1
54 | COc1ccc(-c2cc(=O)c3c(O)cc(O)cc3o2)cc1O [diosmetin] | 0.3
55 | O=C1C[C@@H](c2ccc(O)cc2)Oc2cc(O)cc(O)c21 [naringenin] | 6
56 | O=c1cc(-c2cc(O)c(O)c(O)c2)oc2cc(O)cc(O)c12 [tricetin] | 1.1
57 | O=c1c(O)c(-c2ccc(O)cc2)oc2cc(O)cc(O)c12 [kaempferol] | 14

Same assay, conditions: apigenin as glycosyl acceptor substrate

Row | Compound | activity to UDP-activated glycosyl donor
58 | O=C(O)[C@H]1O[C@H](OP(=O)(O)OP(=O)(O)OC[C@H]2O[C@@H](n3ccc(=O)[nH]c3=O)[C@H](O)[C@@H]2O)[C@H](O)[C@@H](O)[C@@H]1O [UDP-glucuronic acid] | showed the activity

Same assay, conditions: standard reaction conditions

Row | Compound | glucuronosyl transfer activity to glycosyl acceptor substrate (in words)
59 | COc1cc(/C=C/CO)ccc1O [coniferyl alcohol] | no activity
60 | O=C(O[C@@H]1Cc2c(O)cc(O)cc2O[C@@H]1c1cc(O)c(O)c(O)c1)c1cc(O)c(O)c(O)c1 [epigallocatechin gallate] | no activity
61 | Oc1ccc(C=Cc2cc(O)cc(O)c2)cc1 [resveratrol] | shows the activity
62 | O=C1/C(=C/c2ccc(O)c(O)c2)Oc2cc(O)cc(O)c21 [aureusidin] | no activity
63 | catechin | no activity
64 | Oc1ccc([C@H]2OC[C@H]3[C@@H]2CO[C@@H]3c2ccc3c(c2)OCO3)cc1O [SC1, (+)-sesamin catechol 1] | shows the activity
65 | O=c1c(O)c(-c2cc(O)c(O)c(O)c2)oc2cc(O)cc(O)c12 [myricetin] | shows the activity
66 | Oc1ccc([C@H]2OC[C@H]3[C@@H]2CO[C@@H]3c2ccc(O)c(O)c2)cc1O [SC2, (+)-sesamin catechol 2] | shows the activity
67 | O=c1cc(-c2ccc(O)cc2)oc2cc(O)c([C@@H]3O[C@H](CO)[C@@H](O)[C@H](O)[C@H]3O)c(O)c12 [isovitexin] | no activity
68 | Oc1ccc(C2OCC3C(c4ccc(O)c(O)c4)OCC23)cc1O (single isomer, unassigned; (+)) [EC2, (+)-episesamin catechol 2] | shows the activity
69 | O=c1cc(-c2ccc(O)c(O)c2)oc2c([C@@H]3O[C@H](CO)[C@@H](O)[C@H](O)[C@H]3O)c(O)cc(O)c12 [orientin] | no activity
